# ChEMBL document CHEMBL1909046, “DrugMatrix in vitro pharmacology data”
# Experiments:
# [1] = target: Sodium-dependent noradrenaline transporter (Homo sapiens, UniProt P23975); assay: DRUGMATRIX: Norepinephrine Transporter radioligand binding (ligand: [125I] RTI-55); format: cell membranes, MDCK, Membrane; details: Not Active = under 50% inhibition at 10 µM
# [2] = DRUGMATRIX: Calcium Channel Type L, Dihydropyridine radioligand binding (ligand: [3H] Nitrendipine); format: cell membranes, Rattus norvegicus, Wistar, Cerebral cortex, Membrane; details: Not Active = under 50% inhibition at 10 µM
# [3] = DRUGMATRIX: Glutamate, NMDA, Phencyclidine radioligand binding (ligand: [3H] TCP); format: cell membranes, Rattus norvegicus, Wistar, Cerebral cortex, Membrane; details: Not Active = under 50% inhibition at 10 µM
# [4] = target: T1, Progesterone receptor (Bos taurus, UniProt Q690N0); assay: DRUGMATRIX: Progesterone radioligand binding (ligand: [3H] R-5020); format: tissue-based, Uterus; details: Not Active = under 50% inhibition at 10 µM
# T1 sequence (Q690N0 whole entry): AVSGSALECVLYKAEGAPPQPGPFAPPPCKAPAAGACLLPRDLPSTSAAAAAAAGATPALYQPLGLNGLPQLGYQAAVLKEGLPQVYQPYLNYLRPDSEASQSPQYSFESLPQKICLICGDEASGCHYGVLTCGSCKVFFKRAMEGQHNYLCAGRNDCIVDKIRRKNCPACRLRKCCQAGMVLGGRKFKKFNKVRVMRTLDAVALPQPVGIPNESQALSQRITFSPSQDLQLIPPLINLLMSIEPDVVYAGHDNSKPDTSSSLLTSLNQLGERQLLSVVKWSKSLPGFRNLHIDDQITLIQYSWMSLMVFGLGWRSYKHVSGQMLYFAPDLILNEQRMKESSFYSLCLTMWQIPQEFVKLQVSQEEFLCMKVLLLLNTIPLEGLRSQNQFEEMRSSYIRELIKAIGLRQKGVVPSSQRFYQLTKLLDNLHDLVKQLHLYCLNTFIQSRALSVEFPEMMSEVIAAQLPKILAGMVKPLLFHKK
# [5] = target: Receptor tyrosine-protein kinase erbB-2 (Homo sapiens, UniProt P04626); assay: biochemical; format: cell-based, Insect cells;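 note: inhibition of HER2 kinase enzyme activity, measured with Poly(Glu:Tyr) as the phosphorylation substrate; in other assays of this panel Not Active means under 50% inhibition at 10 µM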
# Receptor tyrosine-protein kinase erbB-2, sequence (P04626 whole entry): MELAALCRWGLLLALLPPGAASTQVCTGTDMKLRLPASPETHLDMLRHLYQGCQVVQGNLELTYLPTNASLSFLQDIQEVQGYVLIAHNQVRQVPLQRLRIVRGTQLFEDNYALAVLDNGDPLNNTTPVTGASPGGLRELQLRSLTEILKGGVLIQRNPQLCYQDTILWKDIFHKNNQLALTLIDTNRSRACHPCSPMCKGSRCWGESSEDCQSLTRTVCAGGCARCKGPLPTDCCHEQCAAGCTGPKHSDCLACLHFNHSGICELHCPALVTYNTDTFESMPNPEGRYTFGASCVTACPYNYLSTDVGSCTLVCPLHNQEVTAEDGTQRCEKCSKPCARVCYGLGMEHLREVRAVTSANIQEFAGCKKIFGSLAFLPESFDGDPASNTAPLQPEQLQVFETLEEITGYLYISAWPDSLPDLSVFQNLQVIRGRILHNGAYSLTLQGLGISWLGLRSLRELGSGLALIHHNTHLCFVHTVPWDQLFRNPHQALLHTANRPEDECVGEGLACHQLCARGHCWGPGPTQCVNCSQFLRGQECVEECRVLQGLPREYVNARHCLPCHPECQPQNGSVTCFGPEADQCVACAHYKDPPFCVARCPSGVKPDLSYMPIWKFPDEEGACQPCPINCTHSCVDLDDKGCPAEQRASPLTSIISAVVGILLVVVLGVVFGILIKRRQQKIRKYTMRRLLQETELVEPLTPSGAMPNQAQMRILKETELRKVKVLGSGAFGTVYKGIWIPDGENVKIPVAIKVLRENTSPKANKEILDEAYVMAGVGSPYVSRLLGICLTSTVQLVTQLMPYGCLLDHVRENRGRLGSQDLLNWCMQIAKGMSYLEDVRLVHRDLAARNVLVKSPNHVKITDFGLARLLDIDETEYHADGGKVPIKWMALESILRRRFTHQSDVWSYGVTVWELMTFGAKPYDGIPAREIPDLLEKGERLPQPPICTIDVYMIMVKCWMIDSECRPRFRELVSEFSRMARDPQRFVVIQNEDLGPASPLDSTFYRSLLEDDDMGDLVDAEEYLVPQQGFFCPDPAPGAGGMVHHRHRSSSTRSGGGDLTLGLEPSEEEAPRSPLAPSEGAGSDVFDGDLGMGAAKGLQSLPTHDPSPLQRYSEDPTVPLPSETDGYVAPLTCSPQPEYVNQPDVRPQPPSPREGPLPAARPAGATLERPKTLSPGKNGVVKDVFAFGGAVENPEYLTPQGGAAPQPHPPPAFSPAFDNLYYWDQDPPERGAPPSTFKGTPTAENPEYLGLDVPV
# Sodium-dependent noradrenaline transporter, sequence (P23975 whole entry): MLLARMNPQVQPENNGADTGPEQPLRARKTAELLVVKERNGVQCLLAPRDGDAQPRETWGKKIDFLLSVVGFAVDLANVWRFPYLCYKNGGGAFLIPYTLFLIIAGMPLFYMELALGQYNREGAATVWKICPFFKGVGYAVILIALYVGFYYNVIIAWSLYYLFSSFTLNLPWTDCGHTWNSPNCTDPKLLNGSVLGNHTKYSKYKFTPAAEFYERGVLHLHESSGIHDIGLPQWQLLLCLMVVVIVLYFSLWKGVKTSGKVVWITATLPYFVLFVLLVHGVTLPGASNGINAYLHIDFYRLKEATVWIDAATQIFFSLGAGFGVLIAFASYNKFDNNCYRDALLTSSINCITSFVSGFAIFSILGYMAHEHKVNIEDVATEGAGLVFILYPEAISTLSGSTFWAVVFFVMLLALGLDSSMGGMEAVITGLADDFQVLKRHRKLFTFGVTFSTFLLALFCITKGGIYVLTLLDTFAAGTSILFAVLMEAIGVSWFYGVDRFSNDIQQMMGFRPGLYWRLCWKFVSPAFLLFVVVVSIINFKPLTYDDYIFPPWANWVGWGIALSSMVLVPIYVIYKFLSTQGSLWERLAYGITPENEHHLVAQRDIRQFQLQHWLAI
SMILES,IC50 ([1]; mdck),IC50 [2],Ki [2],IC50 [3],Ki [3],IC50 [4],IC50 ([5]; insect cells),IC50 ([1]; read-out: IC50) [µM],Ki ([1]; read-out: Ki) [µM],IC50 ([2]; read-out: IC50) [µM],Ki ([2]; read-out: Ki) [µM],Ki ([1]; mdck),Ki [4],Ki ([5]; insect cells),IC50 ([4]; read-out: IC50) [µM],Ki ([4]; read-out: Ki) [µM],IC50 ([5]; read-out: IC50) [µM]
CC(C)CN(C[C@@H](O)[C@H](Cc1ccccc1)NC(=O)O[C@H]1CCOC1)S(=O)(=O)c1ccc(N)cc1,Not Active,Not Active,Not Active,Not Active,Not Active,Not Active,Not Active,,,,,,,,,,
c1ccc(Nc2ccc(Nc3ccccc3)cc2)cc1,,Not Active,Not Active,Not Active,Not Active,Not Active,Not Active,0.786,0.78,,,,,,,,
COc1cc2c3cc1Oc1cc(ccc1O)C[C@@H]1c4c(cc(OC)c(O)c4Oc4ccc(cc4)C[C@@H]3N(C)CC2)CC[N+]1(C)C.[Cl-],Not Active,Not Active,Not Active,Not Active,Not Active,Not Active,Not Active,,,,,,,,,,
NC(=O)N1c2ccccc2CCc2ccccc21,Not Active,Not Active,Not Active,Not Active,Not Active,Not Active,Not Active,,,,,,,,,,
O=C1CC[C@@H](N2C(=O)c3ccccc3C2=O)C(=O)N1,Not Active,Not Active,Not Active,Not Active,Not Active,Not Active,Not Active,,,,,,,,,,
"Cc1onc(O)c1CC(N)C(=O)O (racemic) [(R,S)-AMPA]",Not Active,Not Active,Not Active,Not Active,Not Active,Not Active,Not Active,,,,,,,,,,
Cc1ccc2cc3c(ccc4ccccc43)c3c2c1CC3 [3-METHYLCHOLANTHRENE],,Not Active,Not Active,Not Active,Not Active,Not Active,Not Active,29.7,29.4,,,,,,,,
CC[C@@]1(O)C[C@H](O[C@H]2C[C@H](N(C)C)[C@H](O[C@H]3C[C@H](O)[C@H](O[C@H]4CCC(=O)[C@H](C)O4)[C@H](C)O3)[C@H](C)O2)c2c(cc3c(c2O)C(=O)c2c(O)cccc2C3=O)[C@H]1C(=O)OC [ACLARUBICIN],Not Active,Not Active,Not Active,Not Active,Not Active,Not Active,Not Active,,,,,,,,,,
Nc1nc2c(ncn2COCCO)c(=O)[nH]1 [ACYCLOVIR],Not Active,Not Active,Not Active,Not Active,Not Active,Not Active,Not Active,,,,,,,,,,
Cc1c(C)c2c(c(C)c1O)CC[C@@](C)(CCC[C@H](C)CCC[C@H](C)CCCC(C)C)O2 [ALPHA-TOCOPHEROL],Not Active,Not Active,Not Active,Not Active,Not Active,Not Active,Not Active,,,,,,,,,,
CN(C)c1nc(N(C)C)nc(N(C)C)n1 [ALTRETAMINE],Not Active,Not Active,Not Active,Not Active,Not Active,,Not Active,,,,,,,,,,
Nc1c(Br)cc(Br)cc1CN[C@H]1CC[C@H](O)CC1 [AMBROXOL],Not Active,Not Active,Not Active,Not Active,Not Active,Not Active,Not Active,,,,,,,,,,
NCCCCCC(=O)O [AMINOCAPROIC ACID],Not Active,Not Active,Not Active,Not Active,Not Active,Not Active,Not Active,,,,,,,,,,
CCC1(c2ccc(N)cc2)CCC(=O)NC1=O (centres undefined) [AMINOGLUTETHIMIDE],Not Active,Not Active,Not Active,Not Active,Not Active,Not Active,Not Active,,,,,,,,,,
Cc1ccc(/N=C/N(C)/C=N/c2ccc(C)cc2C)c(C)c1 [AMITRAZ],Not Active,Not Active,Not Active,Not Active,Not Active,Not Active,Not Active,,,,,,,,,,
CCOC(=O)C1=C(COCCN)NC(C)=C(C(=O)OC)C1c1ccccc1Cl (centres undefined) [AMLODIPINE],Not Active,,,Not Active,Not Active,Not Active,Not Active,,,0.031,0.02,,,,,,
COc1ccc(C[C@H]2NC[C@H](O)[C@H]2OC(C)=O)cc1 [ANISOMYCIN],Not Active,Not Active,Not Active,Not Active,Not Active,Not Active,Not Active,,,,,Not Active,Not Active,Not Active,,,

SMILES,IC50 ([1]; mdck),IC50 [2],Ki [2],IC50 [3],Ki [3],IC50 [4],IC50 ([5]; insect cells),IC50 ([1]; read-out: IC50) [µM],Ki ([1]; read-out: Ki) [µM],IC50 ([2]; read-out: IC50) [µM],Ki ([2]; read-out: Ki) [µM],Ki ([1]; mdck),Ki [4],Ki ([5]; insect cells),IC50 ([4]; read-out: IC50) [µM],Ki ([4]; read-out: Ki) [µM],IC50 ([5]; read-out: IC50) [µM]
Nc1ncn([C@@H]2O[C@H](CO)[C@@H](O)[C@H]2O)c(=O)n1 [AZACITIDINE],Not Active,Not Active,Not Active,Not Active,Not Active,Not Active,Not Active,,,,,,,,,,
CN(C)C(=O)Oc1cc(OC(=O)N(C)C)cc(C(O)CNC(C)(C)C)c1 (centres undefined) [BAMBUTEROL],Not Active,Not Active,Not Active,Not Active,Not Active,Not Active,Not Active,,,,,,,,,,
c1ccc2c(c1)c1cccc3ccc4cccc2c4c31 [BENZO[E]PYRENE],Not Active,Not Active,Not Active,Not Active,Not Active,Not Active,Not Active,,,,,,,,,,
CNCCc1ccccn1 [BETAHISTINE],Not Active,Not Active,Not Active,Not Active,Not Active,Not Active,Not Active,,,,,,,,,,
CC(C)C(Br)C(=O)NC(N)=O (centres undefined) [BROMISOVALUM],Not Active,Not Active,Not Active,Not Active,Not Active,Not Active,Not Active,,,,,,,,,,
CCCC1O[C@@H]2C[C@H]3[C@@H]4CCC5=CC(=O)C=C[C@]5(C)[C@H]4[C@@H](O)C[C@]3(C)[C@]2(C(=O)CO)O1 (some centres undefined) [BUDESONIDE],Not Active,Not Active,Not Active,Not Active,Not Active,,Not Active,,,,,,,,0.21,0.027,
CC(NC(C)(C)C)C(=O)c1cccc(Cl)c1 (centres undefined) [BUPROPION],Not Active,Not Active,Not Active,Not Active,Not Active,Not Active,Not Active,,,,,,,,,,
CN(Cc1ccc(C(C)(C)C)cc1)Cc1cccc2ccccc12 [BUTENAFINE],,Not Active,Not Active,Not Active,Not Active,Not Active,Not Active,3.91,3.88,,,,,,,,
C[C@H](CS)C(=O)N1CCC[C@H]1C(=O)O [CAPTOPRIL],Not Active,Not Active,Not Active,Not Active,Not Active,Not Active,Not Active,,,,,,,,,,
Cc1ccc(-c2cc(C(F)(F)F)nn2-c2ccc(S(N)(=O)=O)cc2)cc1 [CELECOXIB],,,,Not Active,Not Active,,Not Active,7.31,7.25,24.6,15.8,,,,18.1,2.36,
O=C(O)CCCc1ccc(N(CCCl)CCCl)cc1 [CHLORAMBUCIL],Not Active,Not Active,Not Active,Not Active,Not Active,Not Active,Not Active,,,,,,,,,,
CN(C)CCCN1c2ccccc2Sc2ccc(Cl)cc21 [CHLORPROMAZINE],,Not Active,Not Active,Not Active,Not Active,Not Active,,,,,,,,,,,19.4
C[C@H](CCC(=O)O)[C@H]1CC[C@H]2[C@@H]3[C@H](O)C[C@@H]4C[C@H](O)CC[C@]4(C)[C@H]3C[C@H](O)[C@]12C [CHOLIC ACID],Not Active,Not Active,Not Active,Not Active,Not Active,Not Active,Not Active,,,,,,,,,,
Cc1cc(C2CCCCC2)n(O)c(=O)c1 [CICLOPIROX],Not Active,Not Active,Not Active,Not Active,Not Active,Not Active,Not Active,,,,,,,,,,
CC1=C2C(=CO[C@H](C)[C@H]2C)C(O)=C(C(=O)O)C1=O [CITRININ],Not Active,Not Active,Not Active,Not Active,Not Active,Not Active,Not Active,,,,,,,,,,
CC(C)(C)NCC(O)c1cc(Cl)c(N)c(Cl)c1 (centres undefined) [CLENBUTEROL],Not Active,Not Active,Not Active,Not Active,Not Active,Not Active,Not Active,,,,,,,,,,
CNCCCN1c2ccccc2CCc2ccccc21 [DESIPRAMINE],,Not Active,Not Active,Not Active,Not Active,Not Active,Not Active,,,,,,,,,,
